According to patent US10399966B2, “Compounds for treatment of trypanosomes and neurological pathogens and uses thereof” (The University of North Carolina at Chapel Hill, priority 2016, dated 2019):
Like-named read-outs stand apart in the source and are kept apart here. Marks after values point to notes of the source that are not given here.

How the values were obtained:
[1] = Mouse oral pharmacokinetics; assay type: in vivo; settings: for Tmax: read-out: Mouse oral PK Tmax (converted); for percent of the Cmax remaining: mouse oral 50 mg/kg
Protocol: […] Experiments were performed with groups of three mice per compound. Plasma was separated and extracted with acetonitrile for measurements of compound concentrations by liquid chromatography/tandem mass spectrometry.

in vitro = settings: human
Protocol: (§2) The selectivity of each compound for the parasite over each of the two cell lines was calculated.

[2] = Distribution between mouse plasma and brain (brain penetration, ip); assay type: in vivo; settings: for [compound]Brain / [compound]Plasma / Brain/plasma ratio: Table 14, mice, single ip dose 5 mg/kg, one hour post-dose; for [compound]Brain / [compound]Plasma: ± SEM of 3 mice (compound 3: 6 mice); for Kp at 1 h / concentration at 60 min / concentration at 1 h: 5 mg/kg; for Kp at 1 h: read-out: Average brain/plasma ratio
In short: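 Mice (n=3) received a single 5 mg/kg ip dose in 7% Tween 80, 3% ethanol, 5% DMSO, 0.9% saline and were sacrificed 1 h post-dose. Plasma and acetonitrile brain homogenates analysed by LC/MS/MS; brain concentration corrected for 2.5% vasculature volume, assuming 1 g = 1 mL.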

[3] = Cytotoxicity against HepG2 cells; settings: human
human hepatocytes HepG2 = test: Cytotoxicity against HepG2 cells; settings: for EC50: Homo sapiens, HepG2, read-out: HepG2 EC50
[4] = Metabolic stability in human liver microsomes; assay type: in vitro ADME; settings: for Human microsomes, percentage of compound remaining / half-life at 1.5 μM: Table 12; for Human microsomes, percentage of compound remaining: after 60 min (where t1/2 > 60 min); for half-life at 3 μM / half-life at 1.5 μM: both sexes, human, liver microsomes, pH 7.4; for half-life at 3 μM: Table 5, read-out: Microsome t1/2 (min) Human; for half-life at 1.5 μM: 37° C., NADPH (1 mM), microsomes 0.5 mg/mL, test compounds 1.5 μM, read-out: Human microsomes t1/2
Protocol: (§1) Metabolic stability was evaluated using liver microsomes derived from mouse and human sources. Microsomal incubations were carried out according to a protocol described previously (Wang et al., Antimicrob. Agents Chemother. 54:2507 (2010)) with modifications. Briefly, substrate stock solutions were prepared in DMSO and DMSO content was kept at 0.5% (v/v) in final incubations. Incubation mixtures ([…]), liver microsomes (0.5 mg/mL) from mouse (pool of 1000, CD-1 male mouse) or human (pool of 50, mixed gender) (XenoTech LLC, Lenexa, Kans.) in a phosphate buffer (100 mM, pH 7.4) containing 3.3 mM MgCl2. After a 5-minute pre-equilibration period at 37° C., reactions (in triplicate) were initiated by adding the NADPH cofactor (1 mM). For NADPH-independent reactions, the cofactor was replaced with water. Aliquots (10 μl) of the reaction mixtures were removed at 0, 15, 30, and 60 minutes and individually mixed with 200 μL of ice-cold acetonitrile containing internal standard. The mixtures were vortex-mixed, and precipitated protein was removed by centrifugation at 2,250×g for 15 min. The supernatant fractions were dried using a 96-well microplate evaporator (Apricot Designs Inc., Covina, Calif.) under N2 at 50° C. and reconstituted with 100 μL 50% methanol containing 0.1% trifluoroacetic acid before UPLC-MS/MS analysis. In vitro half-life (t1/2) was obtained by analyzing the substrate concentration vs. incubation time curve using the one-phase exponential decay model (GraphPad Prism® 5.0, San Diego, Calif.).

[5] = test system: human lymphocytes CRL-8155; test: Cytotoxicity against CRL-8155 cells; settings: human lymphoblasts; for EC50: read-out: CRL-8155 EC50, concentration required to inhibit growth by 50%; for EC90: read-out: CRL-8155 EC90, concentration required to inhibit growth by 90%
Protocol: as §2

[6] = Metabolic stability in mouse liver microsomes; assay type: in vitro ADME; settings: for Mouse microsomes, percentage of compound remaining: after 60 min (where t1/2 > 60 min); for half-life at 1.5 μM: read-out: Mouse microsomes t1/2
Protocol: as §1

Trypanosoma cruzi = test: Efficacy against T. cruzi in vitro; assay type: cell-based; settings: Trypanosoma cruzi; for EC90: read-out: T.cruzi EC90
T. b. brucei = test: In vitro antitrypanosomal activity against T. brucei (growth inhibition); assay type: cell-based, Trypanosoma brucei; settings: Trypanosoma brucei; for EC90: read-out: T. brucei EC90
In short: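 Dose-response EC50 against T. brucei parasites with 0.4% DMSO final, 48 h at 37 °C; parasite density quantified by ATP luminescence (CellTiter-Glo).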

T. b. brucei TREU667 = test: Mouse efficacy model of chronic T. brucei infection; assay type: in vivo; settings: single intraperitoneal dose 10 mg/kg on day 21
Protocol: For chronic efficacy, experiments were done in compliance with the University of Washington IACUC approved protocol. According to published procedures, groups of 5 mice were infected with 1×10^4 T. b. brucei (strain TREU667) at day 0 to establish a chronic infection. Treatment began on day 21 post-infection, and mice received 50 mg/kg test compound orally b.i.d. for 10 d (total of 20 doses) in a 200 μL volume of a vehicle composed of Phosal 53 MCT (60%), PEG400 (30%) and EtOH (10%). A control group received vehicle with no compound and another control group received a single intraperitoneal dose of diminazene aceturate at 10 mg/kg in water on day 21. […] Post dosing, parasitemia was monitored via microscopic examination of tail blood slides until 180 days post-infection. Mice were removed from the experiment once parasites were detected in the blood.
In a model of the chronic phase of HAT, compound 1 was administered to five mice infected with T. b. brucei TREU667 at 50 mg/kg/po b.i.d.×10 days, beginning 21 days post-infection. […] Efficacy PK blood samples were collected from three of the five mice prior to dose 15, and at 1 h and 6 h post-dose. […] Compound 1 attained 5/5 cures as determined by the absence of detectable parasitemia in any of the treated mice through 180 days post-infection (FIG. 2). […]

[7] = test system: human lymphocytes CRL-8155
Protocol: as §2

[8] = Table 13, mice, single 50 mg/kg oral gavage, vehicle Tween 80 (7%), EtOH (3%), DMSO (5%) in 0.9% NaCl, ± SEM of 3 mice, read-out: Cmax
[9] = mouse, plasma, po, 50 mg/kg, Table 5, n = 3, read-out: Mouse oral PK Average Cmax
[10] = mouse, plasma, po, 50 mg/kg, Table 5
[11] = Table 8, groups of 3 mice (compound 3: ± SEM of 6 mice)
[12] = male, CD-1, mouse, liver microsomes, pH 7.4, Table 12, 37° C., NADPH (1 mM), microsomes 0.5 mg/mL, test compounds 1.5 μM
[13] = Table 10, read-out: T.cruzi EC50
[14] = Table 8, read-out: T. brucei EC50
[15] = Table 11, read-out: T. b. brucei EC50
[16] = Table 12, read-out: T. b. brucei EC50
[17] = Table 9, read-out: T. brucei EC50
[18] = Table 13, mice, single 50 mg/kg oral gavage, vehicle Tween 80 (7%), EtOH (3%), DMSO (5%) in 0.9% NaCl, ± SEM of 3 mice
[19] = mouse, brain and plasma, intraperitoneal, Table 8, groups of 3 mice
[20] = read-out: HepG2 EC90, concentration required to inhibit growth by 90%, human hepatocytes

Structure (SMILES) | Mouse oral PK Tlast ([1]; Table 5) [min] | Mouse oral PK Average AUC ([1]; Table 5, n = 3) | Cmax [1, 8] [µM] | Cmax [1, 9] [µM] | Tmax [1, 10] [h] | Average [compound] brain [2, 11] | Average [compound] plasma [2, 11] | [compound]Brain [2] | EC50 (human hepatocytes HepG2) [nM] | Human microsomes, percentage of compound remaining [4] [%] | half-life at 1.5 μM [4] [h] | EC50 [5] [nM] | melting point [°C] | EC50 (Trypanosoma cruzi; [13]) [nM] | EC90 (Trypanosoma cruzi; Table 10) [nM] | EC50 (T. b. brucei; [14]) [nM] | EC50 (T. b. brucei; [15]) [nM] | EC50 (T. b. brucei; [16]) [nM] | EC50 (T. b. brucei; [17]) [nM] | EC90 (T. b. brucei; Table 9) [nM] | further results
O=C(Nc1ccc2sc(-c3ccc(F)c(F)c3)nc2c1)N1CCC(F)C1 (racemic) [Compound 3, 2-(3,4-Difluorophenyl)-5-(3-fluoro-N-pyrrolidylamido)benzothiazole] | 480 | 3847 ± 466 (n = 3) min * μmol/L | 10 ± 0.65 | 10 ± 1.1 | 1 | 5.48 ± 0.683^a μM | 3.26 ± 0.630^a μM | 5.48 ± 0.683^b μM | > 50000 | 99 | > 1 | > 50000 | 209 to 210 | 177 | 525 | 51.9 | 51.9 | 51.9 | 51.9 | 91.9 | EC90 (in vitro): > 50000 nM; [compound]Plasma [2]: 3.26 ± 0.630^b μM; Kp at 1 h ([2]; mouse, in vivo, Table 5, mouse brain penetration (60 min), n = 3): 1.52 ± 0.0416; concentration at 60 min ([2]; mouse, in vivo, Table 5 r15, mouse brain penetration (60 min), n = 3): 2.78 ± 0.652 µM; concentration at 60 min ([2]; mouse, in vivo, Table 5 r17 (second line so headed), mouse brain penetration (60 min), n = 3): 4.22 ± 0.974 µM; Kp at 1 h ([2]; mouse, in vivo, Table 8, groups of 3 mice): 2.11 ± 0.669; EC90 [3]: > 50000 nM; half-life at 3 μM [4]: > 60 min; Mouse microsomes, percentage of compound remaining ([6]; Table 12): 52%; half-life at 3 μM ([6]; male, CD-1, mouse, liver microsomes, pH 7.4, Table 5, read-out: Microsome t1/2 (min) Mouse): 60 min; half-life at 1.5 μM [6, 12]: > 1 h; EC50 (Trypanosoma cruzi; Table 6, read-out: T. cruzi EC50): 91.9 nM; EC50 (T. b. brucei; Table 6, read-out: T. brucei EC50): 51.9 nM
O=C(Nc1ccc2sc(-c3ccc(F)c(F)c3)nc2c1)N1CCCC1 [Compound 2, 2-(3,4-Difluorophenyl)-5-(N-pyrrolidylamido)benzothiazole] | 480 | 408 ± 95 (n = 3) min * μmol/L | 2.01 ± 0.46 | 2 ± 0.82 | 1 | 4.25 ± 1.20 µM | 2.61 ± 1.26 µM |  | > 50000 | 66 | > 1 | 33900 | 221 to 223 | 339 | 483 | 91.8 | 91.8 | 91.8 | 91.8 | 181 | AUC0 min-∞ [1, 18]: 443.3 ± 43.07 µM·min; Brain/plasma ratio [2]: 1.81 ± 0.458; Kp at 1 h ([2]; mouse, brain and plasma, intraperitoneal, Table 5, mouse brain penetration (60 min), n = 3): 1.81 ± 0.793; Kp at 1 h ([2]; mouse, brain and plasma, intraperitoneal, Table 7, groups of 3 mice): 1.81 ± 0.793; Kp at 1 h [2, 19]: 1.81 ± 0.793; concentration at 1 h ([2]; mouse, brain, intraperitoneal, Table 7, groups of 3 mice, read-out: Average [compound] brain): 4.25 ± 1.2 µM; concentration at 1 h ([2]; mouse, plasma, intraperitoneal, Table 7, groups of 3 mice, read-out: Average [compound] plasma): 2.61 ± 1.26 µM; concentration at 60 min ([2]; plasma, intraperitoneal, Table 5 r15, mouse brain penetration (60 min), n = 3): 2.61 ± 1.26 µM; EC90 (human hepatocytes HepG2; [20]): > 50000 nM; half-life at 3 μM [4]: > 60 min; EC90 [5]: > 50000 nM; Microsome t1/2 (min) Mouse ([6]; Table 5): 13.8 min; Mouse microsomes t1/2 ([6]; Table 12, 37° C., NADPH (1 mM), microsomes 0.5 mg/mL, test compounds 1.5 μM): 0.233 h; EC50 (T. b. brucei; Table 7, read-out: T. brucei EC50): 91.8 nM
O=C(Nc1ccc2sc(-c3ccc(F)c(F)c3)nc2c1)N1C[C@@H](F)[C@H](F)C1 [Compound 35, (3R,4R)-2-(3,4-Difluorophenyl)-5-(3,4-difluoro-N-pyrrolidylamido)benzothiazole] |  |  | 11 ± 0.58 |  |  |  |  | 16.2 ± 2.88 µM | > 50000 | 96 | > 1 | 27100 | 217 to 218 | 562 | 652 | 114 | 114 | 114 | 114 | 747 | AUC0 min-∞ [1, 18]: 13515 ± 224.6 µM·min; percent of the Cmax remaining ([1]; 24 h time point): 34%; percent of the Cmax remaining ([1]; 32 h time point): > 17%; Brain/plasma ratio [2]: 7.71 ± 1.63; [compound]Plasma [2]: 2.19 ± 0.424 µM; Kp at 1 h [2, 19]: 7.71 ± 1.63; concentration at 1 h ([2]; mouse, brain, intraperitoneal, Table 8, groups of 3 mice (compound 3: ± SEM of 6 mice), read-out: Average [compound] brain): 16.2 ± 2.88 µM; concentration at 1 h ([2]; mouse, plasma, intraperitoneal, Table 8, groups of 3 mice (compound 3: ± SEM of 6 mice), read-out: Average [compound] plasma): 2.19 ± 0.424 µM; EC90 (human hepatocytes HepG2; [20]): > 50000 nM; EC90 [5]: > 50000 nM; Mouse microsomes, percentage of compound remaining ([6]; Table 12): 67%; half-life at 1.5 μM [6, 12]: > 1 h
N=C(N)c1ccc(/N=N/Nc2ccc(C(=N)N)cc2)cc1 [diminazene aceturate, reference compound] |  |  |  |  |  |  |  |  |  |  |  |  |  |  |  |  |  |  |  |  | parasitemia outcome (in words) (T. b. brucei TREU667): temporary clearance of parasitemia, but subsequently relapsed
CCN(CC)CCCC(C)Nc1c2ccc(Cl)cc2nc2ccc(OC)cc12 (stereo not drawn) [quinacrine, reference compound] |  |  |  |  |  |  |  |  | 10400 |  |  |  |  |  |  |  |  |  |  |  | EC90 (human hepatocytes HepG2; human): 18200 nM; EC90 [7]: 9940 nM
